≈ marks a conversion by molar mass, not a printed value. Entries after “also recorded” stand apart in the source; their conditions may differ. Where two headings read alike, the source gives them in different places.
Assays:
Staphylococcus aureus = assay: Growth of Staphylococcus aureus in LB broth by OD600 (FIG. 1); type: cell-based; details: 0.5-25 μM
Description: A single colony of Staphylococcus aureus was grown in 2 ml of Luria-Bertani(LB) broth overnight at 37° C. in a bacterial shaker with vigorous shaking. 0.5 ml of the culture was transferred to 250 ml LB and allowed to grow at 37° C. until the OD600 (optical density) reading was about 0.2 (a reading of 1 OD600 indicates a cell concentration of approximately 8×10^8 cells/ml). […] No-drug and DMSO solvent were used as controls. Aliquots of the bacterial culture were taken every 2 hours to obtain the OD600 reading.

[1] = tested on: M. tuberculosis (ATCC 27294); assay: BACTEC drug susceptibility, M. tuberculosis; type: cell-based; details: Mycobacterium tuberculosis, ATCC27294
E. Coli = assay: Minimum inhibitory concentration, E. coli; details: Escherichia coli
[2] = tested on: VRE (Vancomycin Resistant Enterococcus faeclum); details: threshold not given
[3] = Determination of maximal tolerated dose (MTD), single intraperitoneal injection; details: mouse, in vivo, ip
Description: (§1) Eight groups of BDF1 mice (5 animals/group) were used to determine a maximal tolerated dose (MTD) for HHC.
(§2) All mice were weighed, the weight being used to determine blood volume for each animal. The amount of drug necessary to achieve a theoretical concentration of drug in the animal (e.g, 50, 100, 150 μM etc.) was calculated based on the formula: blood volume=8% body weight of the animal. Drug solutions were made using DMSO as the solvent and a single intraperitoneal injection of a volume of 100-120 μl was given. […] Based on the above, the MTD is determined to be at 200 μM (~6.5 mg/kg). To confirm the MTD, it is necessary to dose the animals with the predetermined MTD once a day for consecutive days following established experimental treatment times (i.e., 5 days for in vivo tumor inhibition studies).

BDF1 mice = assay: as above; details: mouse, in vivo, ip
Description: as §1, §2

[4] = tested on: KB cells (human oral epidermoid carcinoma); assay: Trypan blue exclusion assay, cytostatic activity, KB; type: cell-based; details: incubation 48h, 3 experiments, read-out: ID50 (the source's name)
[5] = tested on: MRSA (Methicillin resistant Staphylococcus A.); assay: Minimum inhibitory concentration, MRSA; type: cell-based, Staphylococcus aureus
[6] = tested on: HeLa S3 cells (human cervical epithelioid carcinoma); assay: Trypan blue exclusion assay, cytostatic activity, HeLa S3; type: cell-based; details: incubation 24h, 3 experiments, read-out: ID50 (the source's name)
MCF-7 cells = assay: Fluorescence activated cell sorting (FACS), cell cycle phase; type: cell-based, human; details: for cell cycle phase distribution: 48 hours
Description: Fluorescence activated cell sorting (FACS) was used to determine what percentage of cells could be found in the designated cell cycle phase after 48 hours of continuous HHC exposure. There are four distinct phases in the cell cycle which lead to duplication of the cell and its genetic material. In the G0/G1 phase the cell is at rest or is performing miscellaneous biosynthetic functions. During the S phase, DNA synthesis occurs which leads to replication of the chromosomes. G2 is the pre-mitotic interval while the M phase is the time during which the cell divides.
MCF-7 cells were exposed to concentrations of 1.5 μM and 25 μM of HHC, and DMSO. DMSO had no significant effect on the cell cycle, with a profile almost identical to that of the "no drug" control.

Listeria monocytogenes = details: U.S. Pat. Nos. 5,286,506; 5,455,038; cited from earlier work
[7] = tested on: DNA, RNA or protein synthesis; assay: Other studies on DNA, RNA or protein synthesis in cancer cells; type: cell-based
[8] = tested on: Multidrug resistant Staphylococcus (except to Vancomycin); assay: Minimum inhibitory concentration, multidrug resistant Staphylococcus; type: cell-based
[9] = tested on: VRE (Vancomycin resistant enterococcus); assay: Minimum inhibitory concentration, VRE; type: cell-based
Staphylococcus Aureas = assay: Minimum inhibitory concentration, Staphylococcus aureus; type: cell-based
[10] = tested on: CEM vinblastin resistant cells; assay: Trypan blue exclusion assay, cytostatic activity, CEM vinblastin resistant; type: cell-based; details: Homo sapiens; CEM vin resistant; incubation 48h; 4 experiments; read-out: ID50 (the source's name)
[11] = tested on: CEM cells (human acute lymphoblastic leukemia); assay: Trypan blue exclusion assay, cytostatic activity, CEM; type: cell-based; details: CCRF-CEM, incubation 48h, 4 experiments, read-out: ID50 (the source's name)
[12] = Mannering et al.; cited from earlier work
[13] = tested on: Raji cells (human Burkitt lymphoma); assay: Trypan blue exclusion assay, cytostatic activity, Raji; type: cell-based; details: incubation 24h, 4 experiments, read-out: ID50 (the source's name)

## CC(C)CCC1=C(O)C(C(=O)C(C)C)=C(O)C(CCC(C)C)(CCC(C)C)C1=O [HHC, hexahydrocolupulone]
Staphylococcus aureus
  inhibition of bacterial growth (OD600): effective inhibitor of bacterial growth
[1]; 50 μM, read-out: inhibition of tuberculosis growth
  inhibition at 50 µM: > 99%
[1]; 100 μM, read-out: inhibition of TB growth
  inhibition at 100 µM: 100%
E. Coli
  MIC: > 100 µM
E. Coli; read-out: MIC, HHC negative control
  MIC: 100 µg/mL
[2]; patient A
  antibiotic sensitivity: S
[2]; patient B
  antibiotic sensitivity: S
[2]; patient C
  antibiotic sensitivity: S
[3]
  MTD: ~6.5 mg/kg
BDF1 mice
  maximal tolerated dose (MTD): 200 µM
[4]
  IC50: 850 nM
[5]; MRSA
  MIC: 2.5 µM (≈ 1.02 µg/mL)
[5]; drug resistant MRSA
  cross resistance with other antibiotics: HHC is not
[6]
  IC50: 1210 nM
MCF-7 cells; 1.5 μM HHC
  cell cycle phase distribution: increase the number of cells in G0/G1 and decrease the number of cells in S phase
MCF-7 cells; 25 μM HHC
  cell cycle phase distribution: decrease in the number of cells in G0/G1 and an increase in the number of cells in S phase
MCF-7 cells; FACS
  effect upon G1-S phase transition: apparent effect upon the G1-S phase transition of the cell cycle; also recorded: has an effect upon the G1-S phase transition of the cell cycle
Listeria monocytogenes
  growth inhibition of food pathogens: can inhibit the growth of food pathogens, such as Listeria monocytogenes
[7]
  cytotoxic effect on cancer cells: effects upon DNA, RNA or protein synthesis: not due to major effects upon DNA, RNA or protein synthesis
[8]
  MIC: 2.5 µM (≈ 1.02 µg/mL)
[9]
  cross resistance with vancomycin: not cross resistant with vancomycin
[9]; Enterococcus
  MIC: 5 µM (≈ 2.03 µg/mL)
Staphylococcus Aureas; Staphylococcus Aureas, read-out: MIC
  MIC: 5 µM
Staphylococcus Aureas; read-out: MIC, HHC positive control
  MIC: 2.03 µg/mL
[10]
  IC50: 2610 nM
[11]
  IC50: 1970 nM
[12]
  activity relative to non-hydrogenated parent: more active than colupulone
[13]
  IC50: 2190 nM

From patent US5827895A, “Hexahydrolupulones useful as anticancer agents” (Regents of the University of Minnesota, priority 1996, dated 1998)
